Read-outs that look alike come from different tables or passages of the source.
What was measured:
[1] = In vitro dissolution, paddle method, pH 5.8 phosphate buffer; assay type: physicochemical
Procedure: Dissolution studies were performed according to the USP XXI method 2 (paddle method) at 37 ± 0.5 °C at 50 rpm. 900 ml of dissolution medium were used as standard volume. Dissolution samples (1 mL) were withdrawn at the specified times of 15, 30, 45, 60, 90, 120 min from Dissolution cups, and 1 ml of dissolution medium was replenished in the same time. Samples were filtered through a 0.45 μm nylon disc filter and were measured absorbance at 230 nm by HPLC [11].

[2] = Pharmacokinetic study in rats (plasma LC-MS/MS) after iv or oral VOC, oral VOC-P188 or oral VOC-β-CD; assay type: in vivo, Sprague Dawley rats; conditions: for AUC(0-t) / MRT last / Tmax / half-life / Cmax / bioavailability: male, Sprague-Dawley, rat, plasma; for MRT last: read-out: MRT0-t; for half-life: read-out: t1/2β (converted)
Procedure: The intravenous injection solution was prepared by dissolving 0.15 g of VOC in 25 ml water containing 3 ml 10% Tween-80 as solubilizer. The oral solution was prepared by dissolving 0.35 g of VOC in 25 ml normal saline containing 3 ml 10% Tween-80 as solubilizer. The VOC-P188 solution was prepared by mixing VOC-P188 5 g in 25 ml water with magnetic stirring apparatus. The VOC-β-CD solution was prepared by mixing VOC-β-CD 3.5 g in 25 ml water with magnetic stirring apparatus.
Twenty-four male SD rats (220 ~ 250 g) were randomly divided into four groups, 6 in each group. After fasting for 12 h before administration, the rats in group 1 were given VOC by tail vein injection at a dose of 30 mg/Kg, the rats at second group were oral administration of VOC solution, the dosage was 120 mg/Kg based on the mass of VOC. The rats at groups 3 and 4 were given VOC-P188 and VOC-β-CD, respectively.
Blood samples (0.3 ml) were collected from the eyes at 0.08, 0.17, 0.33, 0.5, 1, 1.5, 2, 4, 6, 8, 12 and 24 h after administration, and they were immediately transferred into a heparinized Eppendorf (EP) tube. The blood samples were then centrifuged at 13,000 r/min for 10 min. The plasma samples were stored at − 80 °C for later analysis.
The thawed plasma sample (0.1 ml) was transferred to another EP tube and 20 μl of DL, 50 μl of 2% formic acid and 500 μl of methanol were added. The mixture was vortexed for 2 min, and centrifuged at 13000 r/min for 10 min. The supernatant was transferred into a clean EP tube, and evaporated to dryness under a stream of nitrogen at 40 °C. The residue was dissolved in 100 μl of methanol. The supernatant was injected into the HPLC system.
An HPLC system consisting of a solvent-delivery system LC-30 AD, an autosampler SIL-30 AC, a column oven CTO-30 AC, a solvent degasser DGU-20A3, and a controller CBM-20A from […] was used in the study. Separation was conducted using a Shim-pack GIST C18-AQ HP column (2.1 mm × 100 mm, 3 μm). The column oven was maintained at 35 °C. The mobile phase was 0.1% formic acid in water as mobile phase A and acetonitrile as mobile phase B. The linear gradient elution program was set according to preliminary tests: 45–60% B, 0–2 min; 60–65% B, 2–6 min; 65–95% B, 6–7 min; 95–45% B, 7–9 min and 45% B, 9–10 min, with the flow rate kept at 0.3 ml/min. The injection volume was set at 2 μl.
The MS analysis was performed on a 4500 QTRAP™ system from Applied Biosystems (AB Sciex) equipped with Turbo V sources and Turbo Ion Spray™ (TIS) interface. Electrospray ionization was performed in positive mode. Ion source: electrospray ion source (ESI source); detection method: multiple reaction monitoring (MRM); ion source temperature: 500 °C; desolvent gas temperature: 550 °C; desolvent gas flow rate: 800 l/h. The detection ion pair, retention time, declustering voltage and collision energy of each index component and internal standard were shown in Table 2.
The plasma SA, NBP, NOL, ZL and BP concentrations were evaluated using the equation from the standard curves that were run with each batch of samples. The plasma concentration-time data were analyzed with the Drug and Statistics 2.0 software package to determine the pharmacokinetic parameters. The observed Cmax value was obtained from the observed data and the observed AUC0 → t value was calculated using the trapezoidal rule. The absolute bioavailability of VOC and the relative bioavailability of VOC-P188 and VOC-β-CD were calculated, the formula for calculating absolute bioavailability (F1) and relative bioavailability (F2): F1=AUCpo×Div/AUCiv×Dpo×100% […]
Where AUC is the area under the temporal curve of blood drug concentration (μg/l*h), D is administration dosage (mg/kg); the subscripts iv and po are injection and oral administration, respectively; the subscript R is reference drug (VOC); the subscript T is solid dispersion or inclusion compound.

[3] = Stability test of VOC-P188 and VOC-β-CD (temperature, illumination); assay type: physicochemical
[4] = design: method as in PMID 18039808; conditions: cited from earlier work
[5] = VOC iv 30 mg/kg, rat plasma, n = 6
[6] = VOC po 120 mg/kg, rat plasma, n = 6
[7] = VOC-P188 solid dispersion po vs VOC po, rats
[8] = VOC-P188 solid dispersion po, rat plasma, n = 6
[9] = VOC-β-CD inclusion compound po vs VOC po, rats
[10] = VOC-β-CD inclusion compound po, rat plasma, n = 6
[11] = iv, 30 mg/kg, VOC iv 30 mg/kg, rat plasma, n = 6
[12] = iv, 30 mg/kg, VOC iv 30 mg/kg, rat plasma, n = 6, read-out: Tmax
[13] = iv, 30 mg/kg, VOC iv (tail vein) 30 mg/kg, rat plasma, n = 6
[14] = po, 120 mg/kg, VOC po 120 mg/kg, rat plasma, n = 6
[15] = po, 120 mg/kg, VOC po 120 mg/kg, rat plasma, n = 6, read-out: Tmax
[16] = po, 120 mg/kg, after oral administration of VOC, rats, read-out: Tmax (time of peak concentration)
[17] = po, VOC-P188 and VOC-β-CD po, rats, read-out: bioavailability in the two preparations
[18] = po, VOC-P188 solid dispersion po, rat plasma, n = 6
[19] = po, VOC-P188 solid dispersion po, rat plasma, n = 6, read-out: Tmax
[20] = po, VOC-β-CD inclusion compound po, rat plasma, n = 6
[21] = po, VOC-β-CD inclusion compound po, rat plasma, n = 6, read-out: Tmax
[22] = po, 120 mg/kg, VOC po vs VOC iv, rats, read-out: F1 (absolute bioavailability)

| SMILES | t1/2α [2, 5] [h] | t1/2α [2, 6] [h] | F2 (relative bioavailability) [2, 7] [%] | t1/2α [2, 8] | F2 (relative bioavailability) [2, 9] [%] | t1/2α [2, 10] | AUC(0-t) [2, 11] [ng·h/mL] | MRT last [2, 11] [min] | Tmax [2, 12] [min] | half-life [2, 11] [min] | Cmax [2, 13] [ng/mL] | AUC(0-t) [2, 14] [ng·h/mL] | Cmax [2, 14] [ng/mL] | MRT last [2, 14] [min] | Tmax [2, 15] [min] | half-life [2, 14] [min] | bioavailability [2, 17] [%] | AUC(0-t) [2, 18] [ng·h/mL] | Cmax [2, 18] [ng/mL] | MRT last [2, 18] [min] | also measured |
| --- | --- | --- | --- | --- | --- | --- | --- | --- | --- | --- | --- | --- | --- | --- | --- | --- | --- | --- | --- | --- | --- |
| CCC/C=C1\OC(=O)c2ccccc21 [BP] | 0.04 ± 0.04 | 1.38 ± 1.02 | 251.50 | 2.72 ± 3.66 h | 363.55 | 7.02 ± 5.42^* h | 198 ± 42.8 | 76.8 ± 19.2 | 4.98 | 42 ± 32.4 | 373 ± 155 | 99.1 ± 23.3 | 43.7 ± 10.9 | 208 ± 64.8 | 30 ± 16.8 | 224 ± 196 | < 50 | 249 ± 24.5 | 40.3 ± 8.37 | 445 ± 36 | solubility in pH 5.8 PBS [1]: poor solubility; Tmax [2, 16]: < 30 min; Tmax [2, 19]: 25.2 ± 19.8 min; half-life [2, 18]: 518 ± 146 min; AUC(0-t) [2, 20]: 298 ± 31.7 ng·h/mL; Cmax [2, 20]: 38.8 ± 16 ng/mL; MRT last [2, 20]: 507 ± 46.2 min; Tmax [2, 21]: 21 ± 11.4 min; half-life [2, 20]: 1170 ± 338 min |
| CCCC[C@@H]1OC(=O)c2ccccc21 [NBP, N-butylphthalide, reference compound] | 0.06 ± 0.04 | 0.26 ± 0.10 | 197.67 | 2.82 ± 1.55^** h | 198.39 | 3.95 ± 1.96^** h | 54.6 ± 16.5 | 32.4 ± 13.2 | 4.98 | 15.6 ± 9 | 196 ± 64.5 | 36.1 ± 7.58 | 25.9 ± 8.3 | 162 ± 28.2 | 28.2 ± 4.2 | 39 ± 44.4 | < 50 | 72.7 ± 9.8 | 23.5 ± 1.59 | 244 ± 27.6 | bioavailability [2, 22]: < 25%; Tmax [2, 16]: < 30 min; Tmax [2, 19]: 19.2 ± 12 min; half-life [2, 18]: 188 ± 60.6 min; AUC(0-t) [2, 20]: 76.1 ± 24.6 ng·h/mL; Cmax [2, 20]: 22.4 ± 5.56 ng/mL; MRT last [2, 20]: 317 ± 62.4 min; Tmax [2, 21]: 49.8 ± 15.6 min; half-life [2, 20]: 263 ± 109 min |
| CCCC[C@@H]1OC(=O)C2=CCCC[C@H]21 [NOL, Neocnidilide] | 0.04 ± 0.04 | 0.46 ± 0.67 | 258.18 | 4.21 ± 4.29^* h | 218.01 | 3.21 ± 2.44 h | 505 ± 152 | 47.4 ± 10.2 | 4.98 | 18 ± 6.6 | 1380 ± 335 | 442 ± 45.2 | 223 ± 71.3 | 205 ± 34.2 | 10.8 ± 7.2 | 186 ± 131 | < 50 | 1140 ± 63.9 | 244 ± 131 | 457 ± 34.2 | bioavailability [2, 22]: < 25%; Tmax [2, 19]: 25.2 ± 27 min; half-life [2, 18]: 530 ± 110 min; AUC(0-t) [2, 20]: 945 ± 85 ng·h/mL; Cmax [2, 20]: 134 ± 24.3 ng/mL; MRT last [2, 20]: 490 ± 33 min; Tmax [2, 21]: 40.2 ± 15.6 min; half-life [2, 20]: 586 ± 163 min |
| CCCCC1OC(=O)C2=C1CCC=C2 (stereo not drawn) [SA, senkyunolide A] | 0.09 ± 0.05 | 1.31 ± 1.58 | 185.82 | 1.50 ± 1.59 h | 138.69 | 2.34 ± 1.24 h | 1370 ± 315 | 43.2 ± 4.8 | 4.98 | 46.8 ± 39.6 | 3430 ± 557 | 1260 ± 274 | 631 ± 310 | 251 ± 29.4 | 11.4 ± 6 | 227 ± 84 | < 50 | 2360 ± 351 | 701 ± 349 | 387 ± 57.6 | content decreased by ([3]; in VOC-P188, 60 °C for 10 days): 15.8%; content decreased by ([3]; in VOC-β-CD, 60 °C for 10 days): 9.0%; bioavailability [2, 22]: < 25%; Tmax [2, 19]: 12 ± 9.6 min; half-life [2, 18]: 434 ± 154 min; AUC(0-t) [2, 20]: 1830 ± 532 ng·h/mL; Cmax [2, 20]: 399 ± 68.3 ng/mL; MRT last [2, 20]: 373 ± 90.6 min; Tmax [2, 21]: 30 ± 15.6 min; half-life [2, 20]: 179 ± 34.2 min |
| CCC/C=C1\OC(=O)C2=C1CCC=C2 [ZL, Z-ligustilide] | 0.04 ± 0.04 | 0.82 ± 0.51 | 163.35 | 4.40 ± 4.10^* h | 224.54 | 4.72 ± 1.92^* h | 1240 ± 435 | 27 ± 6 | 4.98 | 33 ± 39.6 | 4530 ± 1450 | 504 ± 53.3 | 214 ± 76 | 236 ± 32.4 | 13.2 ± 5.4 | 329 ± 157 | < 50 | 801 ± 199 | 320 ± 286 | 357 ± 29.4 | Oral bioavailability [4]: 2.6%; content decreased by ([3]; in VOC-P188, 60 °C for 10 days): 38.9%; content decreased by ([3]; in VOC-β-CD, 60 °C for 10 days): 20.3%; solubility in pH 5.8 PBS [1]: poor solubility; Tmax [2, 19]: 29.4 ± 25.2 min; half-life [2, 18]: 535 ± 315 min; AUC(0-t) [2, 20]: 883 ± 211 ng·h/mL; Cmax [2, 20]: 145 ± 24.8 ng/mL; MRT last [2, 20]: 439 ± 19.8 min; Tmax [2, 21]: 24 ± 10.2 min; half-life [2, 20]: 358 ± 174 min |

Source: PMC8063472, “Pharmacokinetics of five phthalides in volatile oil of Ligusticum sinense Oliv.cv. Chaxiong, and comparison study on physicochemistry and pharmacokinetics after being formulated into solid dispersion and inclusion compound” (BMC Complementary Medicine and Therapies, 2021)
